Test results as given in US20260108547A1, “LEVERAGING L-FUCOSE-MEDIATED SIGNALING TO INDUCE MONOCYTE-DERIVED DENDRITIC CELL POLARIZATION” (H. LEE MOFFITT CANCER CENTER AND RESEARCH INSTITUTE, INC., priority 2022, published 2026).

Assays:
SW1 tumors [1] = assay: Volumetric tumor growth, SW1 melanoma in C3H/HeN mice (incl. immunodepletion, FTY720, anti-PD1); format: in vivo, mouse; settings: SW1 melanoma C3H mouse model treated with FTY720 (inhibition of lymph node egress)
From the text: All animals were housed at the Vincent A. Stabile Research building animal facility at H. Lee Moffitt Cancer Center & Research Institute, which is fully accredited by the Association for Assessment and Accreditation of Laboratory Animal Care International (AAALAC, #434), and are managed in accordance with the Guide for the Care and Use of Laboratory Animals (“The Guide”), the Animal Welfare Regulations Title 9 Code of Federal Regulations Subchapter A, “Animal Welfare”, Parts 1-3 (AWR), the Public Health Service Policy on Humane Care and Use of Laboratory Animals (PHS Policy), and by the USF Institutional Animal Care and Use Committee's Principles and Procedures of Animal Care and Use (IACUC Principles). The experiments and protocols detailed in this study received institutional approval by the Moffitt IACUC (RIS00001625). Four-to-six-week-old female C3H/HeN and male C57BL6 mice were purchased from Charles Rivers Laboratories for the indicated experiments. Four-to-six-week-old male NSG mice from the Lau laboratory breeding colony were used for the indicated experiments. Power calculations were used to determine mouse cohort sizes to detect significant changes in tumor sizes. In general, 10 mice per indicated cohort to accommodate for incidental loss of mice due to issues beyond our control (e.g., incidental tumor ulceration that required exclusion from the study). Mouse tumor volumes were measured using length, width and depth divided by 2. At each experimental endpoint, mice were humanely euthanized using CO2 inhalation in accordance to the American Veterinary Medical Association guidelines.
(§1) For all mouse models, 1×10^6 melanoma cells were injected subcutaneously in the right hind flanks of each mouse. […] This dosage is within ranges for dietary supplementation with L-fucose and other similar dietary sugars (e.g., D-mannose) in other rodent studies. When the tumors reached −2 cm^3, the animals were sacrificed, and the tumors either processed for flow cytometric profiling or for histological analysis as indicated.
(§2) Control vs. mFuk±L-fucose models (FIG. 1 & FIG. 8): SW1 or SM1 mouse melanoma cells were injected into syngeneic C3H/HeN (or NSG) female or C57BL/6 male mice, respectively, as follows: parental SW1 cells for FIG. 1A; parental SM1 cells for FIG. 1E; SW1 cells stably expressing either empty vector (EV) or mouse fucose kinase (mFuk) for FIG. 1L; and parental SW1 cells for FIG. 1M.
as §2, with “L-fucose±FTY720” for “mFuk±L-fucose”, “2):” for “1 & FIG. 8):”, “respectively. Cells were injected” for “respectively,”, “1M. FTY720 was administered at 20 μg every 2 days starting on Day 12, just prior to the initiation of LF, until endpoint.” for “1M.”
Immunodepletion mouse models (FIG. 1 & FIG. 8): Three days prior to tumor engraftment, PBS (control) or ˜300 μg α-CD4 (20 mg/kg, for immunodepletion, GK1.5, Bioxcell (West Lebanon, NH)) or 0-CD8 (20 mg/kg, for immunodepletion, 2.43, Bioxcell (West Lebanon, NH)) was administered by intraperitoneal injection into the indicated cohorts of mice. Injections of immunodepletion antibody or PBS were continued every 3-4 days until endpoint. Syngeneic recipient C3H/HeN female or C57BL/6 male mice were injected with SW1 or SM1 cells, respectively. […]

SW1 tumors [2] = assay: Flow cytometric profiling of tumors and lymph nodes, SW1 tumors in C3H/HeN mice fed ± L-fucose and treated ± FTY720 (Table 1); format: in vivo, mouse
Experimental: Tumors of SW1 or SM1 melanoma cells from […] or C57BL/6 mice, respectively) were digested using 1× tumor digest buffer (0.5 mg/mL Collagenase I, 0.5 mg/mL Collagenase IV, 0.25 mg/mL Hyalyronidase V, 0.1 mg/mL DNAse I in HBSS (Millipore Sigma (St. Louis, MO)). Tumors were homogenized using the Miltenyi MACs dissociator. Red blood cells were lysed using ACK lysis buffer (Life Technologies, (Grand Island, NY)). Tumor homogenate cells were counted using a standard hemocytometer.
Total TILs were gated first to single cells (based on forward scatter height vs width, followed by side scatter height vs. width). Live cells were gated from the Zombie negative population from the population above. TILs were gated based on splenocyte size from a control spleen. Individual immune subpopulations were sub-gated from the total TIL population using the following staining criteria: CD3^+ for CD3^+ T cells; CD3^+/CD4^+/CD8^− for CD4^+T cells; CD3^+/CD4^−/CD8^+ for CD8^+ T cells, CD11c^+/CD11b^+ for DCs; either NK1.1 (for C57/BL6 mice) or DX5 (for C3H/HeJ) for NK cells; CD11b^+/GR1^+ for MDSC-like cells; and F4/80^+ for macrophages. Single-cell suspensions from tumor and spleen tissue were stained with Live/Dead Zombie NIR (Biolegend, (San Diego, CA)) at 1:1,000 in PBS for 20 min. Cell suspensions were spun down and stained with the following with antibodies at 0.5 μg/ml per antibody: APC anti-mouse CD3, Pacific Blue anti-mouse CD4, BV785 anti-mouse CD8, PerCP anti-mouse CD25, FITC anti-mouse F4/80, PeCy7 anti-mouse CD11c, PE anti-mouse NK1.1 or PE anti-mouse DX5, and PerCP-Cy5.5 anti-mouse CD11b. After staining, the cells were washed and fixed (2% formaldehyde), followed by another wash and flow cytometric analysis. The compensation controls were prepared using 0.5 μg/mL of each antibody with UltraComp eBeads, (ThermoFisher Scientific (Waltham, MA)). All samples were subject to flow cytometric profiling using a LSR Flow Cytometer (BD Biosciences (San Jose, CA)) and analysis as indicated using FlowJo software (BD Biosciences (San Jose, CA)).
as §1
as §2, with “L-fucose±FTY720” for “mFuk±L-fucose”, “2):” for “1 & FIG. 8):”, “respectively. Cells were injected” for “respectively,”, “1M. FTY720 was administered at 20 μg every 2 days starting on Day 12, just prior to the initiation of LF, until endpoint.” for “1M.”

fucosylated HLA-DRB1 = assay: Lectin-mediated proximity ligation assay (L-PLA) of fucosylated HLA-DRB1 in WM793 cells; format: cell-based, human; settings: melanoma cells
Experimental: Coverslip-grown cells subjected to L-PLA were processed upfront as described in the fluorescent immunocytochemistry protocol detailed above, whereas FFPE tumor tissue sections were processed according to the fluorescent immunohistochemistry protocol detailed above. Both approaches used mouse-anti-HLA-DRB1 (applied at 0.2 μg/mL, ab215835, Abcam, Cambridge, UK), biotinylated AAL lectin (applied at 0.2 μg/mL, Vector Laboratories (Burlingame, CA)), on coverslips overnight in 4° C. The coverslip-grown cells were again washed twice with PBS followed and then incubated with phalloidin Alexafluor 488 (applied at 0.05 μg/mL, ThermoFisher Scientific (Waltham, MA) with goat anti-biotin (applied at 0.1 μg/mL, Vector Laboratories (Burlingame, CA)) for 2h in 4° C. Subsequent steps of the protocol were adapted from the DUOlink In Situ Green PLA kit's manufacturer's protocol (Millipore Sigma (St. Louis, MO)). PLA anti-goat MINUS and PLA anti-mouse PLUS probes were applied at 1:5 for 1 h at 37° C. The coverslips were washed twice with Wash Buffer A prior to ligation with 1:5 ligation buffer and 1:40 ligase in ddH2O for 30 min at 37° C. […] Microscopy images were acquired using a Keyence BZ-X710, and images were process and analyzed using FIJI (NIH).

HLA-DRB1 [3] = assay: Immunofluorescent subcellular localization of HLA-DRB1 in WM793 cells; format: cell-based, human; settings: compared with vehicle (DMSO)
Experimental: General fluorescent immunocytochemical staining protocol: Melanoma cells were grown on German glass coverslips (Electron Microscopy Services (Hatfield, PA)) and fixed in fixation buffer (4% formaldehyde, 2% sucrose in phosphate buffered saline (PBS) for 20 min at room temperature (RT). The coverslip-grown cells were subject to two 5-min standing washes in PBS prior to permeabilization in permeabilization buffer (0.4% Triton-X-100 and 0.4% IgG-free bovine serum albumin (BSA, Jackson ImmunoResearch Laboratories (Westgrove, PA) in PBS) for 20 min at RT. The coverslip-grown cells were next subject to 2 PBS washes and incubated with the indicated primary antibodies.

HLA-DRB1 [4] = assay: Flow cytometric assessment of cell surface fucosylation and HLA-DRB1 in melanoma cells; format: cell-based, human; settings: 250 μM, 72 h; flow cytometry
Experimental: Indicated cells were treated for 72 h with DMSO, 250 μM fucosyltransferase inhibitor (FUTi) (Millipore Sigma (St. Louis, MO)), or 250 μM of L-fucose (Biosynth (Oak Terrace, IL)). After 72 h, cells were stained with 0.1 μM PKH26 (Millipore Sigma (St. Louis, MO)) prior to fixation in 4% formaldehyde solution. The cells were stained with anti-HLA-DRB1 and fluorescein AAL, or anti-human or anti-mouse PD-L1 overnight. The following day the cells were washed 3 times prior to adding AlexaFluor 594 donkey anti-rabbit. Cells were washed 3 times and then subject to flow cytometric analyses using a FACSCalibur (BD Biosciences (San Jose, CA)). Samples were analyzed using FlowJo analysis software (BD Biosciences (San Jose, CA)). Median values of DRB1 and AAL were normalized to PKH26 values and statistical analysis was performed using GraphPad Prism.

HLA-DRB1 [5] = assay: qRT-PCR and immunoblot of HLA-DRB1 mRNA and protein levels in melanoma cells; format: cell-based, human; settings: 250 μM
Experimental: Cells were lysed on ice in RIPA lysis buffer (25 mM Tris-HCl pH 7.6, 150 mM NaCl, 5 mM EDTA, 1% NP-40 or 1% Triton X-100, 1% sodium deoxycholate, 0.1% SDS in diH2O+protease and phosphatase inhibitors (ThermoFisher Scientific (Waltham, MA)), briefly sonicated, pelleted, and the resulting lysates were normalized by protein concentration using DC assay (BioRad Laboratories, (Hercules, CA)). The indicated samples were subjected to (12%) SDS-PAGE and immunoblot analysis using the indicated antibodies. Immunoblot imaging and analysis was performed using either an Odyssey FC scanner and ImageStudio (LiCor Biosciences, Lincoln, NE) or film.
RNA from cells subjected to the indicated treatments was extracted using Gene Elute Mammalian Total RNA Extraction System (Millipore Sigma (St. Louis, MO)). RNA was reversed transcribed to cDNA using High-Capacity cDNA Reverse Transcription Kit (ThermoFisher Scientific (Waltham, MA)). qRT-PCR analysis was performed using FastStart Universal SYBR Green Master Mix (Rox) (Roche Diagnostics, (Indianapolis, IN)) using a BioRad CFX96 Real-time system (BioRad Laboratories, (Hercules, CA)). The qRT-PCR cycles used were as follows: 95° C. for 10 min, 35 cycles of 95° C. for 15 seconds, 55° C. for 60 seconds,
and 72° C. for 30 seconds. Expression of the indicated genes was normalized to histone H3A expression. […]

Compound | L-fuc-triggered tumor suppression (SW1 tumors [1]) | average # of CD4 stem central memory cells (SW1 tumors [2]; Day 28, tumors) | average # of CD8 stem central memory cells (SW1 tumors [2]; Day 28, tumors) | average # of CD8 effector memory cells (SW1 tumors [2]; Day 42, tumors) | average # of CD8 stem central memory cells (SW1 tumors [2]; Day 42, tumors) | intratumoral CD4+T central and effector memory subpopulations (SW1 tumors [2]; SW1 model ± FTY720) | cytoplasmic/membranous localization of endogenous fucosylated HLA-DRB1 (L-PLA) (fucosylated HLA-DRB1) | subcellular localization of HLA-DRB1 (HLA-DRB1 [3]) | cell surface HLA-DRB1 (HLA-DRB1 [4]) | cell surface fucosylation (HLA-DRB1 [4]) | HLA-DRB1 mRNA and protein levels (HLA-DRB1 [5])
CCCCCCCCc1ccc(CCC(N)(CO)CO)cc1 [FTY720, reference compound] | completely abrogated | 0.87 per 10^6 cells | 0.00 per 10^6 cells | 220.02 per 10^6 cells | 0.00 per 10^6 cells | abrogated |  |  |  |  | 
CC(=O)OC1O[C@@H](C)[C@@H](OC(C)=O)[C@@H](OC(C)=O)[C@@H]1F (some centres unmarked) [FUTi, 2F-peracteyl-fucose, reference compound] |  |  |  |  |  |  | lost | dimmer, more central, endoplasmic reticulum-co-localization of HLA-DRB1 | decreased | decreased | remained unchanged
